Entries after “also recorded” stand apart in the source; their conditions may differ. Where two headings read alike, the source gives them in different places.
Legend:
breast cancer cell = tested on: breast cancer cell; design: method as in Srinivasan and Plattner, 2006; conditions: ref Srinivasan and Plattner, 2006; cited from earlier work
human tumour cells = conditions: in vitro, pre-clinical; cited from earlier work
[1] = tested on: c-Src 3T mouse xenografts; conditions: immunocompromised rats, subcutaneous, pre-clinical; cited from earlier work
advanced solid tumours = assay: Disease response by RECIST 1.1; type: in vivo, human
Protocol: All patients receiving at least one dose of AZD0424 were evaluable for safety and efficacy analyses. Safety and tolerability of AZD0424 were assessed according to NCI CTCAE version 4.02. Patients who were withdrawn from treatment, or received less than 75% of the planned doses of AZD0424 during the first cycle, for reasons other than toxicity were not evaluable for dose review decisions and could be replaced. Disease response was assessed according to RECIST 1.1. For stable disease (SD), follow-up measurements had to meet the SD criteria at least once at least 6 weeks after the first dose of AZD0424.

[2] = tested on: mouse fibroblasts engineered to over-express activated Src kinase (c-SRC 3T3); conditions: in vitro, pre-clinical; cited from earlier work
[3] = tested on: human Calu-6 lung tumour xenografts; conditions: rats, pre-clinical; cited from earlier work
[4] = tested on: C-terminal Src tyrosine kinase (CSK); conditions: cited from earlier work
[5] = type: in vivo
Src [6] = assay: Urinary NTX and serum CTX levels as markers of Src inhibition; type: in vivo, human
Protocol: Src inhibition is known to reduce bone resorption, resulting in a decrease in urinary N-terminal cross-linking telopeptides of type I collagen (NTX) and serum C-terminal cross-linking telopeptides of type I collagen (CTX) ([Hannon et al, 2012]). Measurements of urinary NTX and serum CTX levels were performed before the first administration of AZD0424 and then weekly, at the same time of day, for up to 6 weeks following first administration as markers of Src inhibition. Samples were analysed at the Mellanby Centre for Bone Research in Sheffield using the Cobas e411 automated immunoassay (Roche Diagnostics, Mannheim, Germany) for serum CTX (ng ml^−1), and the Ortho Clinical Diagnostics (High Wycombe, UK) automated immunoassay for urine NTX. Urinary NTX measurements were reported as a ratio to urinary creatinine (nmol bone collagen equivalent (BCE)/mmol creatinine). Tumour biopsies for measurement of tumour biomarkers (p-Src, Ki67, p-PAX, and p-FAK) by immunohistochemical staining were optional.

Src [7] = tested on: Src; design: method as in Cancer Research UK Centre for Drug Development, 2015; conditions: ref Cancer Research UK Centre for Drug Development, 2015; cited from earlier work
Lck = tested on: Lck; design: method as in Cancer Research UK Centre for Drug Development, 2015; conditions: ref Cancer Research UK Centre for Drug Development, 2015; cited from earlier work
paxillin = conditions: in vitro, pre-clinical; cited from earlier work
[8] = tested on: human umbilical vein endothelial cell cultures; conditions: in vitro, growth factor stimulated, pre-clinical; cited from earlier work
[9] = rat, pre-clinical; cited from earlier work
[10] = tested on: non-engineered human tumour cell lines; conditions: in vitro, diverse panel, pre-clinical; cited from earlier work
[11] = Phase Ia dose escalation: safety and tolerability (NCI CTCAE v4.02, DLT, MTD)
Protocol: (§1) Treatment cycles consisted of 28 days of continuous AZD0424 administration, and treatment was to be continued until disease progression, patient withdrawal or unacceptable toxicity.
(§2) All patients receiving at least one dose of AZD0424 were evaluable for safety and efficacy analyses. Safety and tolerability of AZD0424 were assessed according to NCI CTCAE version 4.02.

[12] = Plasma pharmacokinetics in patients;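 note: patient plasma drug levels measured by validated HPLC with mass spectrometric detection after a 3 h fast, PK parameters from non-compartmental analysis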
Protocol: (§3) Patients were fasted for 3 h prior to administration of AZD0424. Blood samples for analysis of plasma levels of AZD0424 were taken at the following time points: Cycle 1: Pre-dose and at 0.5, 1, 2, 4, 6 and 10 h post-dose on Day 1, then at 24 and 48 h and pre-dose on Days 8, 15 and 22; Cycle 2 (Day 29): Pre-dose and at 0.5, 1, 2, 4, 6, 10, 24 and 48 h. For patients receiving twice-daily AZD0424, the timing of samples was in relation to the morning dose of the drug. Plasma was isolated from centrifuged blood samples and stored at −80 °C prior to quantification of AZD0424 by a validated high performance liquid chromatography method with mass spectrometric detection. Plasma concentration/time data were analysed using non-compartmental methods.

ABL1 = tested on: ABL1; design: method as in Cancer Research UK Centre for Drug Development, 2015; conditions: ref Cancer Research UK Centre for Drug Development, 2015; cited from earlier work
[13] = human, in vivo
Protocol: as §1, §2

VEGFR-2 = conditions: ref Cancer Research UK Centre for Drug Development, 2015; cited from earlier work
Yes = tested on: Yes; design: method as in Cancer Research UK Centre for Drug Development, 2015; conditions: ref Cancer Research UK Centre for Drug Development, 2015; cited from earlier work
[14] = dog, pre-clinical; cited from earlier work
clinical = conditions: human, plasma, oral
Protocol: as §3

[15] = design: method as in Reddy et al, 2015; conditions: colorectal cancer patients; ref Reddy et al, 2015; cited from earlier work
[16] = design: method as in Baselga et al, 2010; conditions: ref Baselga et al, 2010; cited from earlier work

SMILES: Cc1ccc(NC(=O)c2ccc(CN3CCN(C)CC3)cc2)cc1Nc1nccc(-c2cccnc2)n1 [imatinib]
- inhibition of cell motility (breast cancer cell): markedly inhibits cell motility

SMILES: CC(=O)N1CCN(CCOc2cc(OC(C)C)c3c(Nc4c(Cl)cnc5c4OCO5)ncnc3c2)CC1 [AZD0424, 7-[2-(4-Acetylpiperazin-1-yl)ethoxy]-N-(6-chloro[1,3]dioxolo[4,5-b]pyridin-7-yl)-5-isopropoxyquinazolin-4-amine]
- inhibition of migration (human tumour cells): potent inhibition of migration
- inhibition of tumour growth [1]: profound, dose-dependent inhibition of tumour growth
- rate of PD (advanced solid tumours; 22/41): 53.7%
- patients with SD lasting >12 weeks (advanced solid tumours; all cohorts): five
- patients with best response of PD (advanced solid tumours; all cohorts): Twenty-two
- patients with best response of stable disease lasting at least 6 weeks (advanced solid tumours; all cohorts, 7 of 41 patients): 17.1%
- complete response or partial response (advanced solid tumours; all cohorts, N=41): No responses were observed; also recorded: No patients
- inhibition of proliferation [2]: potent inhibition of proliferation
- anti-tumour growth effect [3]: moderate anti-tumour growth effects
- selectivity for Src-Abl1 kinases vs CSK ([4]; ref Cancer Research UK Centre for Drug Development, 2015): > 448 fold
- one tenth of the maximum tolerated dose in rat scaled to man [5]: 17 mg
- change in CTX or NTX level (Src [6]; 5 mg, single patient): No significant post-administration changes
- dose giving clear evidence of Src target inhibition / inhibition of bone turnover (Src [6]; CTX and NTX): ≥ 20 mg per day
- change in CTX and NTX (Src [6]; all cohorts other than 5 mg, by week 2, maintained to 7 weeks): a fall relative to baseline values in both CTX and NTX
- percentage reductions in CTX and NTX compared with 50 mg per day of saracatinib (Src [6]; doses of more than 10 mg per day, saracatinib data ref Hannon et al, 2012): Greater percentage reductions
- IC50 (Src [7]): ~4 nM
- activity against Lck (Lck): additional activity
- inhibition of phosphorylation of paxillin (paxillin): evidence of inhibition of phosphorylation
- inhibition of proliferation [8]: inhibited proliferation
- dose limiting toxicity [9]: gastrointestinal toxicity being dose limiting
- hypotension and reflex tachycardia [9]: Hypotension and reflex tachycardia were also observed
- inhibition of proliferation [10]: generally poor
- deaths due to pneumonia considered possibly related to AZD0424 ([11]; all cohorts): One
- patients who died within 4 weeks of the last administration ([11]; all cohorts): Four
- maximum tolerated dose (MTD) ([11]; o.d., continuous oral dosing, 28-day cycles): 120 mg
- Cmax and AUC(0-24 h) compared with saracatinib ([12]; comparable doses, saracatinib data ref Baselga et al, 2010): much higher for AZD0424 than saracatinib
- dose dependence of Cmax and AUC ([12]; o.d. dosing 5-150 mg): increased linearly with dose; also recorded: Linear, dose-dependent increases; also recorded: dose-dependent, linear increases
- absorption and bioavailability ([12]; oral): rapid absorption and high bioavailability
- IC50 (ABL1): ~4 nM
- Alopecia, treatment-related AE, All grades patients [13]: 17 (41) n (%)
- Alopecia, treatment-related AE, Grade 3–5 patients [13]: 0 n (%)
- Anaemia, treatment-related AE, All grades patients [13]: 7 (17) n (%)
- Anaemia, treatment-related AE, Grade 3–5 patients [13]: 3 (7) n (%)
- Anorexia, treatment-related AE, All grades patients [13]: 19 (46) n (%)
- Anorexia, treatment-related AE, Grade 3–5 patients [13]: 1 (2) n (%)
- Aspartate aminotransferase increased, treatment-related AE, All grades patients [13]: 5 (12) n (%)
- Aspartate aminotransferase increased, treatment-related AE, Grade 3–5 patients [13]: 0 n (%)
- Cmin at which Grade 2 or 3 hypophosphataemia appeared more frequent [13]: ≥ 200 nM
- Constipation, treatment-related AE, All grades patients [13]: 6 (15) n (%)
- Constipation, treatment-related AE, Grade 3–5 patients [13]: 1 (2) n (%)
- Diarrhoea, treatment-related AE, All grades patients [13]: 12 (29) n (%)
- Diarrhoea, treatment-related AE, Grade 3–5 patients [13]: 2 (5) n (%)
- Dysgeusia, treatment-related AE, All grades patients [13]: 14 (34) n (%)
- Dysgeusia, treatment-related AE, Grade 3–5 patients [13]: 0 n (%)
- Fatigue, treatment-related AE, All grades patients [13]: 21(51) n (%)
- Fatigue, treatment-related AE, Grade 3–5 patients [13]: 5 (12) n (%)
- Headache, treatment-related AE, All grades patients [13]: 5 (12) n (%)
- Headache, treatment-related AE, Grade 3–5 patients [13]: 0 n (%)
- Hypophosphataemia, treatment-related AE, All grades patients [13]: 16 (39) n (%)
- Hypophosphataemia, treatment-related AE, Grade 3–5 patients [13]: 8 (20) n (%)
- Lymphocyte count decreased, treatment-related AE, All grades patients [13]: 10 (24) n (%)
- Lymphocyte count decreased, treatment-related AE, Grade 3–5 patients [13]: 5 (12) n (%)
- Maculopapular rash, treatment-related AE, All grades patients [13]: 9 (22) n (%)
- Maculopapular rash, treatment-related AE, Grade 3–5 patients [13]: 2 (5) n (%)
- Nausea, treatment-related AE, All grades patients [13]: 27 (66) n (%)
- Nausea, treatment-related AE, Grade 3–5 patients [13]: 2 (5) n (%)
- Pruritis, treatment-related AE, All grades patients [13]: 7 (17) n (%)
- Pruritis, treatment-related AE, Grade 3–5 patients [13]: 0 n (%)
- Vomiting, treatment-related AE, All grades patients [13]: 13 (32) n (%)
- Vomiting, treatment-related AE, Grade 3–5 patients [13]: 1 (2) n (%)
- dose above which treatment-related AE episodes and Grade 3-5 AEs increased markedly [13]: above 60 mg per day
- nausea, fatigue, anorexia and alopecia, each: patients with treatment-related AE [13]: > 40%
- patients with AE of Grade 3 hypophosphataemia related to the drug [13]: 19.5%
- patients with at least one AE possibly, probably or highly probably related to AZD0424 [13]: 92.7%
- patients with at least one AZD0424-related event Grade 3-5 in severity [13]: 41.5%
- patients with decline in lymphocyte count [13]: 68.3%
- patients with dose delays and/or alterations during the study [13]: 63.4%
- protocol-defined RP2D [13]: 80 mg
- selectivity for Src-Abl1 kinases vs VEGFR-2 (VEGFR-2): > 933 fold
- activity against Yes (Yes): additional activity
- dose limiting toxicity [14]: gastrointestinal toxicity being dose limiting
- hypotension and reflex tachycardia [14]: Hypotension and reflex tachycardia were also observed
- Tmax (clinical): < 2 h
- half-life (clinical): 8.4 ± 2.8 h
- AUC(0-t) (clinical; 5 mg): 0.624 µM·h
- Cmax (clinical; 5 mg): 68.3 nM
- half-life (clinical; 5 mg): 6.7 h
- AUC(0-t) (clinical; 10 mg): 1.57 µM·h
- Cmax (clinical; 10 mg): 210 nM
- half-life (clinical; 10 mg): 6.3 h
- Cmax (clinical; 20 mg): 590 ± 300 nM
- half-life (clinical; 20 mg): 6.8 ± 2.6 h
- AUC(0-t) (clinical; 40 mg): 6.81 ± 3.46 µM·h
- Cmax (clinical; 40 mg): 715 ± 380 nM
- half-life (clinical; 40 mg): 10.5 ± 0.8 h
- AUC(0-t) (clinical; 60 mg): 9.88 ± 1.77 µM·h
- Cmax (clinical; 60 mg): 1380 ± 215 nM
- half-life (clinical; 60 mg): 8.2 ± 3.3 h
- AUC(0-t) (clinical; 80 mg): 14.1 ± 5.12 µM·h
- Cmax (clinical; 80 mg): 1670 ± 602 nM
- half-life (clinical; 80 mg): 9.4 ± 5 h
- AUC(0-t) (clinical; 120 mg): 24.9 ± 12 µM·h
- Cmax (clinical; 120 mg): 2650 ± 923 nM
- half-life (clinical; 120 mg): 7.8 ± 3.1 h
- AUC(0-t) (clinical; 150 mg): 25.6 ± 4.15 µM·h
- Cmax (clinical; 150 mg): 4110 ± 1540 nM
- half-life (clinical; 150 mg): 7.8 ± 2.1 h

SMILES: COc1cc(Nc2c(C#N)cnc3cc(OCCCN4CCN(C)CC4)c(OC)cc23)c(Cl)cc1Cl [bosutinib, reference compound]
- selectivity for SFKs over CSK ([4]; ref Davis et al, 2011): ~30 fold

SMILES: CN1CCN(CCOc2cc(OC3CCOCC3)c3c(Nc4c(Cl)ccc5c4OCO5)ncnc3c2)CC1 [saracatinib]
- rate of Grade 3 hypophosphataemia [15]: 50%
- recommended phase II dose (RP2D) [16]: 175 mg

From paper PMC5877436, “A first-in-human phase I study to determine the maximum tolerated dose of the oral Src/ABL inhibitor AZD0424” (British Journal of Cancer, 2018)
